According to US8895571B2, “Isoindolinone and pyrrolopyridinone derivatives as Akt inhibitors” (Incyte Corporation, priority 2011, dated 2014):

Columns and labels:
Type in all cases: biochemical
Full length Akt1 = biological target: T1, Full length Akt1 (Homo sapiens, UniProt P31749); assay: In vitro Akt kinase enzymatic assay (HTRF), Akt1; conditions: 0.4 nM Akt1, substrate solution with 5 mM ATP, 25° C. 1 hr
T1 construct: Full length Akt1 (cat #P2999); purchased PerkinElmer P2999
Experimental: (§1) Compounds herein were tested for inhibitory activity of Akt targets according to the following in vitro assay. Full length Akt1 (cat #P2999), Akt2 (cat #PV3184), Akt3 (cat #PV3185), peptide substrate, Ulight-Crosstide (cat #TRF0106-M), Ultra-Europium anti-phospho-Crosstide (cat #TRF-0202-M), and 10×LANCE detection buffer (cat #CR97-100) were purchased from PerkinElmer. In general, assay buffer conditions were chosen based on obtaining optimal enzymatic and linear activities. The assay buffer contains 50 mM HEPES, 10 mM MgCl2, 5 mM DTT, 0.005% Tween20 at pH 7.8. Compound stock (0.001 mM) was prepared in DMSO. The compound plate was prepared by 3-fold and 11-point serial dilutions. 0.5 μL of the compound in DMSO was transferred from the compound plate to the assay plate. Enzyme solution (0.4 nM of Akt1, 0.6 nM of Akt2 or 0.6 nM of Akt3) was prepared in the assay buffer. Note that the enzyme concentration given is based on the given stock concentration reported by the vendor. 0.1 μM substrate solution was prepared in the assay buffer with addition of 5 mM ATP. 10 μL of the enzyme solution was added to the assay plate and then 10 μL of substrate solution was added to the assay plate. The plate was protected from light and the reaction was incubated at 25° C. for 1 hr. The reaction was stopped by adding 10 μL of a solution containing 30 mM EDTA, and 3 nM Ultra Europium anti-phospho Crosstide in 1× detection buffer. The plate was incubated for 15-30 min at room temperature and HTRF (homogenous time resolved fluorescence) was measured on a plate reader. Percentage of inhibition was calculated for each concentration and IC50 value was generated from curve fitting. See Table 8 for data related to compounds of the examples.

Full length Akt2 = biological target: T2, Full length Akt2 (Homo sapiens, UniProt P31751); assay: In vitro Akt kinase enzymatic assay (HTRF), Akt2; conditions: 0.6 nM Akt2, substrate solution with 5 mM ATP, 25° C. 1 hr
T2 construct: Full length Akt1 (cat #P2999), Akt2 (cat #PV3184); purchased PerkinElmer PV3184
Experimental: as §1

Full length Akt3 = biological target: T3, Full length Akt3 (Homo sapiens, UniProt Q9Y243); assay: In vitro Akt kinase enzymatic assay (HTRF), Akt3; conditions: 0.6 nM Akt3, substrate solution with 5 mM ATP, 25° C. 1 hr
T3 construct: Full length Akt1 (cat #P2999), Akt2 (cat #PV3184), Akt3 (cat #PV3185); purchased PerkinElmer PV3185
Experimental: as §1

Full length PKA = biological target: T4, Full length PKA (Homo sapiens, UniProt P17612); assay: PKA in vitro enzymatic assay (HTRF); conditions: 0.035 nM enzyme solution, substrate solution with 5 mM ATP, 25° C. 1 hr
T4 construct: Full length PKA (cat #P2912); purchased Invitrogen P2912
Experimental: Full length PKA (cat #P2912), peptide substrate, fluorescein CREBtide peptide (cat #PV3508), Tb-Crebtide p-S133 Ab (cat #PV3566), and Lanthascreen TR-FRET Dilution Buffer stored (part # PV3574) were purchased from Invitrogen. In general, assay buffer conditions were chosen based on obtaining optimal and linear enzymatic activities. The assay buffer contains 50 mM HEPES, 10 mM MgCl2, 5 mM DTT, 0.005% Tween20 at pH 7.8. Compound stock (0.001 mM) was prepared in DMSO. The compound plate was prepared by 3-fold and 11-point serial dilutions. 0.5 μL of the compound in DMSO was transferred from the compound plate to the assay plate. 0.035 nM enzyme solution was prepared in the assay buffer. Note that the enzyme concentration given is based on the given stock concentration reported by the vendor. 0.1 μM substrate solution was prepared in the assay buffer with addition of 5 mM ATP. 10 μL of the enzyme solution was added to the assay plate and then 10 μL of substrate solution was added to the assay plate. The plate was protected from light and the reaction was incubated at 25° C. for 1 hr. The reaction was stopped by adding 10 μL of a solution containing 30 mM EDTA, and 1.5 nM Tb-Crebtide p-S133 Ab in 1× detection buffer. The plate was incubated for 15-30 min at room temperature and HTRF (homogenous time resolved fluorescence) was measured on a plate reader. Percentage of inhibition was calculated for each concentration and IC50 value was generated from curve fitting. See Table 8 for data related to compounds of the examples.

T3 sequence (Q9Y243 whole entry): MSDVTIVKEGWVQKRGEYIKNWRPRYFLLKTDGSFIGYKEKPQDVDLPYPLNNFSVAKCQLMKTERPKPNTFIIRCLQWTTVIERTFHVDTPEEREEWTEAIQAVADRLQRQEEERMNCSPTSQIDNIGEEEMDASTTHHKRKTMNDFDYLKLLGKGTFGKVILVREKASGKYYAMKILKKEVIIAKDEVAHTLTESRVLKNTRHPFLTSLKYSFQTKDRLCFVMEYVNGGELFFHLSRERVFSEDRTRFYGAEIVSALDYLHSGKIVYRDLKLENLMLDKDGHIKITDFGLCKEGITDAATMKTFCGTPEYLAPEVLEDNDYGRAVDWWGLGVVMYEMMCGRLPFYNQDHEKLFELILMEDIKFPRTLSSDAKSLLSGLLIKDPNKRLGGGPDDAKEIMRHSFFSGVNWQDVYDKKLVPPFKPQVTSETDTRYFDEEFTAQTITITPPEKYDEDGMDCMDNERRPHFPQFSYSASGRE
T2 sequence (P31751 whole entry): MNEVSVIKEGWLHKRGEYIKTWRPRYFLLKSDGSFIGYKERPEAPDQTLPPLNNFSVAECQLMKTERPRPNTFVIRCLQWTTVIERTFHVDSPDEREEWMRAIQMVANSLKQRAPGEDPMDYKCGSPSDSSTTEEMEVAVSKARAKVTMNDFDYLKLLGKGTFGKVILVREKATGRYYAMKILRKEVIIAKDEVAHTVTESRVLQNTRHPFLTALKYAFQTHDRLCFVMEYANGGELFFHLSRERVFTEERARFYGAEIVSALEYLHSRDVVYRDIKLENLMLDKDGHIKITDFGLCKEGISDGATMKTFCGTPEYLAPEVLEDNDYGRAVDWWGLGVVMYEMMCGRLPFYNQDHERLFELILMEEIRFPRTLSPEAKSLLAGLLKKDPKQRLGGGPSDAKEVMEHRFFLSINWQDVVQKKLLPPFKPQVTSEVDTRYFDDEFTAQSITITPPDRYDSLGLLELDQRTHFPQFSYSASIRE
T1 sequence (P31749 whole entry): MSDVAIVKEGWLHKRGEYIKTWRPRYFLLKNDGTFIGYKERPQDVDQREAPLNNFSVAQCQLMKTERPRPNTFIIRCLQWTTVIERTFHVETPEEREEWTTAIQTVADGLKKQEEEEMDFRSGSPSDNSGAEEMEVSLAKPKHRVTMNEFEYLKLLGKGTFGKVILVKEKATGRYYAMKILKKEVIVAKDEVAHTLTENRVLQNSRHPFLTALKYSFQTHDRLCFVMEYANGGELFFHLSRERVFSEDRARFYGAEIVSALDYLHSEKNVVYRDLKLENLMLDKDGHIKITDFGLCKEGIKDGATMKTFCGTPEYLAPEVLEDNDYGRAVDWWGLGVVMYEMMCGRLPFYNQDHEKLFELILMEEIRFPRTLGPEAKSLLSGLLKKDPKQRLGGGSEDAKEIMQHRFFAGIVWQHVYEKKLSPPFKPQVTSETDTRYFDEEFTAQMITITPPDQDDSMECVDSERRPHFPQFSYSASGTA

Compound | IC50 (Full length Akt1) [µM] | IC50 (Full length Akt2) [µM] | IC50 (Full length Akt3) [µM] | IC50 (Full length PKA) [µM]
Cn1ncc(Cl)c1-c1ccc2c(c1)CN(C(CN)c1ccccc1)C2=O (stereo in doubt) [Example 114, 2-[(1R)-2-amino-1-phenylethyl]-5-(4-chloro-1-methyl-1H-pyrazol-5-yl)isoindolin-1-one] | < 0.5 | 0.5 to 5 | 0.5 to 5 | > 5
Cn1ncc(-c2ccccc2)c1-c1ccc2c(c1)CN([C@H](CN)Cc1cccc(F)c1)C2=O [Example 14, 2-[(1S)-2-amino-1-(3-fluorobenzyl)ethyl]-5-(4-phenyl-1-methyl-1H-pyrazol-5-yl)isoindolin-1-one] | 0.5 to 5 | 0.5 to 5 | < 0.5 | > 5
Cn1ncc(-c2cccs2)c1-c1ccc2c(c1)CN([C@H](CN)Cc1cccc(F)c1)C2=O [Example 15, 2-[(1S)-2-amino-1-(3-fluorobenzyl)ethyl]-5-[1-methyl-4-(2-thienyl)-1H-pyrazol-5-yl]isoindolin-1-one] | 0.5 to 5 | > 5 | < 0.5 | > 5
Cn1ncc(-c2ccsc2)c1-c1ccc2c(c1)CN([C@H](CN)Cc1cccc(F)c1)C2=O [Example 16, 2-[(1S)-2-amino-1-(3-fluorobenzyl)ethyl]-5-[1-methyl-4-(3-thienyl)-1H-pyrazol-5-yl]isoindolin-1-one] | 0.5 to 5 | 0.5 to 5 | < 0.5 | > 5
Cn1nccc1-c1cnn(C)c1-c1ccc2c(c1)CN([C@H](CN)Cc1cccc(F)c1)C2=O [Example 17, 2-[(1S)-2-amino-1-(3-fluorobenzyl)ethyl]-5-(1′,2-dimethyl-1′H,2H-3,4′-bipyrazol-5′-yl)isoindolin-1-one] | > 5 | > 5 | > 5 | > 5
Cn1ncc(-c2ccncc2)c1-c1ccc2c(c1)CN([C@H](CN)Cc1cccc(F)c1)C2=O [Example 18, 2-[(1S)-2-amino-1-(3-fluorobenzyl)ethyl]-5-(1-methyl-4-pyridin-4-yl-1H-pyrazol-5-yl)isoindolin-1-one] | > 5 | > 5 | 0.5 to 5 | > 5
Cn1ncc(-c2nccs2)c1-c1ccc2c(c1)CN([C@H](CN)Cc1cccc(F)c1)C2=O [Example 20, 2-[(1S)-2-amino-1-(3-fluorobenzyl)ethyl]-5-[1-methyl-4-(1,3-thiazol-2-yl)-1H-pyrazol-5-yl]isoindolin-1-one] | < 0.5 | 0.5 to 5 | 0.5 to 5 | > 5
Cn1ncc(-c2ccc3ccccc3c2)c1-c1ccc2c(c1)CN([C@H](CN)Cc1cccc(F)c1)C2=O [Example 21, 2-[(1S)-2-amino-1-(3-fluorobenzyl)ethyl]-5-[1-methyl-4-(2-naphthyl)-1H-pyrazol-5-yl]isoindolin-1-one] | 0.5 to 5 | > 5 | < 0.5 | > 5
Cn1ncc(-c2cccc3ccccc23)c1-c1ccc2c(c1)CN([C@H](CN)Cc1cccc(F)c1)C2=O [Example 22, 2-[(1S)-2-amino-1-(3-fluorobenzyl)ethyl]-5-[1-methyl-4-(1-naphthyl)-1H-pyrazol-5-yl]isoindolin-1-one] | > 5 | > 5 | > 5 | > 5
Cn1ncc(-c2cncnc2)c1-c1ccc2c(c1)CN([C@H](CN)Cc1cccc(F)c1)C2=O [Example 23, 2-[(1S)-2-amino-1-(3-fluorobenzyl)ethyl]-5-(1-methyl-4-pyrimidin-5-yl-1H-pyrazol-5-yl)isoindolin-1-one] | > 5 | > 5 | > 5 | > 5
Cn1ncc(-c2cccnc2F)c1-c1ccc2c(c1)CN([C@H](CN)Cc1cccc(F)c1)C2=O [Example 24, 2-[(1S)-2-amino-1-(3-fluorobenzyl)ethyl]-5-[4-(2-fluoropyridin-3-yl)-1-methyl-1H-pyrazol-5-yl]isoindolin-1-one] | > 5 | > 5 | > 5 | > 5
Cn1ncc(-c2ccc(F)nc2)c1-c1ccc2c(c1)CN([C@H](CN)Cc1cccc(F)c1)C2=O [Example 25, 2-[(1S)-2-amino-1-(3-fluorobenzyl)ethyl]-5-[4-(6-fluoropyridin-3-yl)-1-methyl-1H-pyrazol-5-yl]isoindolin-1-one] | > 5 | > 5 | > 5 | > 5
Cn1ncc(-c2cncc(F)c2)c1-c1ccc2c(c1)CN([C@H](CN)Cc1cccc(F)c1)C2=O [Example 26, 2-[(1S)-2-amino-1-(3-fluorobenzyl)ethyl]-5-[4-(5-fluoropyridin-3-yl)-1-methyl-1H-pyrazol-5-yl]isoindolin-1-one] | > 5 | > 5 | > 5 | > 5
COc1ncccc1-c1cnn(C)c1-c1ccc2c(c1)CN([C@H](CN)Cc1cccc(F)c1)C2=O [Example 27, 2-[(1S)-2-amino-1-(3-fluorobenzyl)ethyl]-5-[4-(2-methoxypyridin-3-yl)-1-methyl-1H-pyrazol-5-yl]isoindolin-1-one] | > 5 | > 5 | > 5 | > 5
COc1ccc(-c2cnn(C)c2-c2ccc3c(c2)CN([C@H](CN)Cc2cccc(F)c2)C3=O)cn1 [Example 28, 2-[(1S)-2-amino-1-(3-fluorobenzyl)ethyl]-5-[4-(6-methoxypyridin-3-yl)-1-methyl-1H-pyrazol-5-yl]isoindolin-1-one] | 0.5 to 5 | > 5 | > 5 | > 5
CNC(=O)c1ccc(-c2cnn(C)c2-c2ccc3c(c2)CN([C@H](CN)Cc2cccc(F)c2)C3=O)cn1 [Example 29, 5-(5-{2-[(1S)-2-amino-1-(3-fluorobenzyl)ethyl]-1-oxo-2,3-dihydro-1H-isoindol-5-yl}-1-methyl-1H-pyrazol-4-yl)-N-methylpyridine-2-carboxamide] | 0.5 to 5 | > 5 | > 5 | > 5
CNC[C@H](Cc1cccc(F)c1)N1Cc2cc(-c3c(Cl)cnn3C)ccc2C1=O [Example 30, 5-(4-chloro-1-methyl-1H-pyrazol-5-yl)-2-[(1S)-1-(3-fluorobenzyl)-2-(methylamino)ethyl]isoindolin-1-one] | < 0.5 | 0.5 to 5 | 0.5 to 5 | > 5
CCNC[C@H](Cc1cccc(F)c1)N1Cc2cc(-c3c(Cl)cnn3C)ccc2C1=O [Example 31, 5-(4-chloro-1-methyl-1H-pyrazol-5-yl)-2-[(1S)-2-(ethylamino)-1-(3-fluorobenzyl)ethyl]isoindolin-1-one] | < 0.5 | 0.5 to 5 | 0.5 to 5 | > 5
CC(C)NC[C@H](Cc1cccc(F)c1)N1Cc2cc(-c3c(Cl)cnn3C)ccc2C1=O [Example 32, 5-(4-chloro-1-methyl-1H-pyrazol-5-yl)-2-[(1S)-1-(3-fluorobenzyl)-2-(isopropylamino)ethyl]isoindolin-1-one] | 0.5 to 5 | 0.5 to 5 | 0.5 to 5 | > 5
